From patent publication US20250136578A1 (Kolm Therapeutics Inc., priority 2023, published 2025)
pEC50, pIC50: −log10 of the molar value.

How the values were obtained:
AR / CBP ternary complex = AR / CBP ternary complex (Homo sapiens, UniProt P10275+Q92793); assay: Ternary complex formation assay (sandwich ELISA, AR capture, CBP antibody detection) in VCaP cell lysates; type: cell-based; settings: treated 1.5 hours, rabbit CBP or p300 antibody detection, average, read-out: Average Ternary Complex
How it was run: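 Sandwich ELISA: plates were coated with anti-AR antibody (AR441) and given lysates of VCaP cells treated 1.5 h with bifunctional compound in charcoal-stripped serum. Co-captured CBP or p300 was probed with rabbit mAbs and HRP secondary. Chemifluorescent signal (ex 570/em 585) was read at 0, 5 and 15 min.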

VCaP cells = assay: VCaP growth inhibition assay (CTG); type: cell-based; settings: Homo sapiens, 216 h, 30 pM R1881, 9 days
How it was run: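 Growth was measured by CTG luminescence after a 9-day exposure of VCaP cells to compound (final 10 fM–100 nM, fivefold steps) in the presence of 30 pM final R1881, in phenol red-free DMEM/5% CSS. IC50 values were derived by nonlinear 4-parameter regression of RLU against concentration.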

AR / CBP ternary complex, sequence (P10275 whole entry): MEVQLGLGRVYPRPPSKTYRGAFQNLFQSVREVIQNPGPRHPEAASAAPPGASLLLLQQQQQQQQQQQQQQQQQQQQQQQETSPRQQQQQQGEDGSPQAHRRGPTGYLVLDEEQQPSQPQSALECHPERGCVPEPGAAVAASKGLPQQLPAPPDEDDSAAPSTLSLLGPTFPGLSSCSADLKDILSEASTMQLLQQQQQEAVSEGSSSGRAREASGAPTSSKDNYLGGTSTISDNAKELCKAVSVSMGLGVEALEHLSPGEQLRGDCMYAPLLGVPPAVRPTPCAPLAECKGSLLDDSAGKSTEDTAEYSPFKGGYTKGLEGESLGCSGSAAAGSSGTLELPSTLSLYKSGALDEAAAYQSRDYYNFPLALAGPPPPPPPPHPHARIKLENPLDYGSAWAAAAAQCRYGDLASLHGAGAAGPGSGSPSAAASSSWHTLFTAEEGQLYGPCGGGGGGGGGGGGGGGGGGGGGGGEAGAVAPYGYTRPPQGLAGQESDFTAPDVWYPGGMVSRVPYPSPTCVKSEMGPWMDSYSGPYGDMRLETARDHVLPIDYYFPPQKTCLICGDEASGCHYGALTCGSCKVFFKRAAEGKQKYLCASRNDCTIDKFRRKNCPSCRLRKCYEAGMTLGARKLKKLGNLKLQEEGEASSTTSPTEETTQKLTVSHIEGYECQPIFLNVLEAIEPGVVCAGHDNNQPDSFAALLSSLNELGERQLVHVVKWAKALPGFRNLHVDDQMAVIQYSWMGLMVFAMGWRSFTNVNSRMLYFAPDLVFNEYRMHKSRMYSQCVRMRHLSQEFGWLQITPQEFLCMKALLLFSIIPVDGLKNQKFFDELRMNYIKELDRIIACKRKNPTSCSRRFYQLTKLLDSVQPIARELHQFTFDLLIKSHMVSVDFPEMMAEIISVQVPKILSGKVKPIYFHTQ
AR / CBP ternary complex, sequence (Q92793 2-2442): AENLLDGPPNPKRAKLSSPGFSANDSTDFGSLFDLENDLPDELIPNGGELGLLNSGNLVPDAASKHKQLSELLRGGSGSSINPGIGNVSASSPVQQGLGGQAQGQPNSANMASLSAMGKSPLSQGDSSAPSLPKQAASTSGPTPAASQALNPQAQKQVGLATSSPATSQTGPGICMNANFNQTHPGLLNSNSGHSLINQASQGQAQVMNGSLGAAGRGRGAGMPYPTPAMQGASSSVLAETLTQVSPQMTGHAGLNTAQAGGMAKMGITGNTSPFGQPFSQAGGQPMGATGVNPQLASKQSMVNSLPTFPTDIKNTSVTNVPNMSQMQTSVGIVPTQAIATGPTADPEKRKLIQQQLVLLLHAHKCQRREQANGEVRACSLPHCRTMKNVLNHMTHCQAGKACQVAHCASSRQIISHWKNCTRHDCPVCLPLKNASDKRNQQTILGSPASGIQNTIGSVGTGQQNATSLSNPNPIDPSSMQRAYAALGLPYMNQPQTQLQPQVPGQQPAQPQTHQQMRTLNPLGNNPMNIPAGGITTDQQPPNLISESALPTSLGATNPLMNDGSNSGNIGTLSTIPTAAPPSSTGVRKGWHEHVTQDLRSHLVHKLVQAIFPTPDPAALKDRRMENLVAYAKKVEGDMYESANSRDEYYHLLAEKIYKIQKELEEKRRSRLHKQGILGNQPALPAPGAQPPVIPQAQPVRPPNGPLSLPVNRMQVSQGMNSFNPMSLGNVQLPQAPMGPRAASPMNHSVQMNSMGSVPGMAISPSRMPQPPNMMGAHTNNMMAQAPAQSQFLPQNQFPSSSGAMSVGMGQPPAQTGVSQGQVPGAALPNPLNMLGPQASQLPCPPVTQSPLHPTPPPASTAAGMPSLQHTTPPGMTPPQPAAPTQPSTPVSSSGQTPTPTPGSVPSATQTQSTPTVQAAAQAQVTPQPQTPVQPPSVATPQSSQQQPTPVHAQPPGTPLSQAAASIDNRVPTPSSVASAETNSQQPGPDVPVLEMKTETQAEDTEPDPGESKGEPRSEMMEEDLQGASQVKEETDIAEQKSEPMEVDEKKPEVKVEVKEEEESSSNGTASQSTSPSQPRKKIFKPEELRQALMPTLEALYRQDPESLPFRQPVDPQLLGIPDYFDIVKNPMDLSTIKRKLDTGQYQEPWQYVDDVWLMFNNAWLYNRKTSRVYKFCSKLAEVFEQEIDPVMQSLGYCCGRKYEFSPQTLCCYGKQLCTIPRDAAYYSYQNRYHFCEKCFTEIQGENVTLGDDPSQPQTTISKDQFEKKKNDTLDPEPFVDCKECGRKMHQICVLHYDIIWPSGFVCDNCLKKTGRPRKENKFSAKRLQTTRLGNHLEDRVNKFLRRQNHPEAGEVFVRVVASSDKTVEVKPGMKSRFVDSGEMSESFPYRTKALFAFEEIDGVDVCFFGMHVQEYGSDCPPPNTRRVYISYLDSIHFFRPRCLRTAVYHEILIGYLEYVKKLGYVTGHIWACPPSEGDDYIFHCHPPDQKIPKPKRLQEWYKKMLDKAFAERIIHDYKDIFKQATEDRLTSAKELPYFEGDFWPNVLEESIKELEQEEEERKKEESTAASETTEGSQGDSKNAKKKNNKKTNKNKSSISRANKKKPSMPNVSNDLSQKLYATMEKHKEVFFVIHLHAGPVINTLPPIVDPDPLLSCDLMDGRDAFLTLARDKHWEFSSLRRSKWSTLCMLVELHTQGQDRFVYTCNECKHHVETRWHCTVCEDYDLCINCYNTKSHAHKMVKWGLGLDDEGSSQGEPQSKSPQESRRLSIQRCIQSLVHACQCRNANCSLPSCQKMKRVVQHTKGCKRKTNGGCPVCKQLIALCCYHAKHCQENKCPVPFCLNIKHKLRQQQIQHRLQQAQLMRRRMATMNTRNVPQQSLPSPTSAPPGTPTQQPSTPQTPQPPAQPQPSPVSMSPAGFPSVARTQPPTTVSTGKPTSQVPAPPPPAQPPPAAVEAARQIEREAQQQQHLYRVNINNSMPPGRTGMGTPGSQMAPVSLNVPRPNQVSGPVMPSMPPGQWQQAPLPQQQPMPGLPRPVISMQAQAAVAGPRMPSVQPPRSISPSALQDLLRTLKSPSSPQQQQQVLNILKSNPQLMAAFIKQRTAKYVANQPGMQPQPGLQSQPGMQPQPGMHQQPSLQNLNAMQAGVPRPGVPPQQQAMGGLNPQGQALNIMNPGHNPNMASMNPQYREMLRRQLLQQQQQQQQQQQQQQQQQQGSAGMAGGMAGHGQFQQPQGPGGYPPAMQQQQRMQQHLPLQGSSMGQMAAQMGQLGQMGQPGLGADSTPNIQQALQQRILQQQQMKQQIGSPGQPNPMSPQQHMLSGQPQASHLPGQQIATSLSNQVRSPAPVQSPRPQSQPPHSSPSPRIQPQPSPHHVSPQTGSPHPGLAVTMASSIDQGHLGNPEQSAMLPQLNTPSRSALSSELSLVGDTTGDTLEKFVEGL

Structure (SMILES) | pEC50 (AR / CBP ternary complex) | pIC50 (VCaP cells)
Cn1c(=O)n(C)c2cc(N3CCCc4cc(-c5ccc(CCC6CCN(c7ccc(C(=O)N[C@H]8CC[C@H](Oc9ccc(C#N)c(Cl)c9)CC8)nn7)CC6)nc5)ncc43)ccc21 [Compound 54, N-[4-(3-chloro-4-cyano-phenoxy)cyclohexyl]-6-[4-[2-[5-[1-(1,3-dimethyl-2-oxo-benzimidazol-5-yl)-3,4-dihydro-2H-1,7-naphthyridin-6-yl]-2-pyridyl]ethyl]-1-piperidyl] pyridazine-3-carboxamide] | 8.00 to 9.00 | 9.00 to 10.00
CC(=O)N1CCc2c(c(-c3cccc4cc(-c5cnn(CCC6CCN(c7ccc(C(=O)N[C@H]8CC[C@H](Oc9ccc(C#N)c(Cl)c9)CC8)nn7)CC6)c5)ncc34)nn2C2CC2)C1 [Compound 82] | > 9.00 | 9.00 to 10.00
CC(=O)N1CCc2c(c(-c3cccc4cc(-c5cnn(CC6CC7(C6)CN(c6ccc(C(=O)N[C@H]8CC[C@H](Oc9ccc(C#N)c(Cl)c9)CC8)nn6)C7)c5)ncc34)nn2C2CCOCC2)C1 [Compound 46, 6-[6-[[4-[8-(5-acetyl-1-tetrahydropyran-4-yl-6,7-dihydro-4H-pyrazolo[4,3-c]pyridin-3-yl)-3-isoquinolyl]pyrazol-1-yl]methyl]-2-azaspiro[3.3]heptan-2-yl]-N-[4-(3-chloro-4-cyano-phenoxy)cyclohexyl]pyridazine-3-carboxamide] | > 9.00 | 9.00 to 10.00
CC(=O)N1CCc2c(c(N3CCCc4cc(C)ncc43)nn2C2CCN(CC3CCN(c4ccc(C(=O)N[C@H]5CC[C@H](Oc6ccc(C#N)c(Cl)c6)CC5)nn4)CC3)CC2)C1 [Compound 107, 6-[4-[[4-[5-acetyl-3-(6-methyl-3,4-dihydro-2H-1,7-naphthyridin-1-yl)-6,7-dihydro-4H-pyrazolo[4,3-c]pyridin-1-yl]-1-piperidyl]methyl]-1-piperidyl]-N-[4-(3-chloro-4-cyano-phenoxy)cyclohexyl]pyridazine-3-carboxamide] | > 9.00 | ≥ 10.00
C[C@@H]1CC(=O)Nc2cc(C3CCN(CC4CCN(c5ccc(C(=O)N[C@H]6CC[C@H](Oc7ccc(C#N)c(Cl)c7)CC6)nn5)CC4)CC3)cc(-c3ccc4c(c3)c(-c3cnn(C)c3)nn4C)c2N1 [Compound 87, N-[4-(3-chloro-4-cyano-phenoxy)cyclohexyl]-6-[4-[[4-[(4R)-4-methyl-6-[1-methyl-3-(1-methylpyrazol-4-yl)indazol-5-yl]-2-oxo-1,3,4,5-tetrahydro-1,5-benzodiazepin-8-yl]-1-piperidyl]methyl]-1-piperidyl]pyridazine-3-carboxamide] | > 9.00 | ≥ 10.00
Cn1cc(-c2cc3c(cc2C(F)F)N(c2cc(C4CCN(CC5CCN(c6ccc(C(=O)N[C@H]7CC[C@H](Oc8ccc(C#N)c(Cl)c8)CC7)nn6)CC5)CC4)c4c(c2)n(C)c(=O)n4C)CCC3)cn1 [Compound 33, N-[4-(3-chloro-4-cyano-phenoxy)cyclohexyl]-6-[4-[[4-[6-[7-(difluoromethyl)-6-(1-methylpyrazol-4-yl)-3,4-dihydro-2H-quinolin-1-yl]-1,3-dimethyl-2-oxo-benzimidazol-4-yl]-1-piperidyl]methyl]-1-piperidyl]pyridazine-3-carboxamide] | > 9.00 | 9.00 to 10.00
CC(=O)N1CCc2c(c(-c3cccc4cc(-c5cnn(C)c5)ncc34)nn2C2CCN(CC3CCN(c4ccc(C(=O)N[C@H]5CC[C@H](Oc6ccc(C#N)c(Cl)c6)CC5)nn4)CC3(C)C)CC2)C1 (stereo partly shown) [Compound 280] | > 9.00 | ≥ 10.00
CC(=O)N1CCc2c(c(-c3cccc4cc(-c5cnn(CCC6CC7(C6)CN(c6ccc(C(=O)N[C@H]8CC[C@H](Oc9ccc(C#N)c(Cl)c9)CC8)nn6)C7)c5)ncc34)nn2C)C1 [Compound 50, 6-[6-[2-[4-[8-(5-acetyl-1-methyl-6,7-dihydro-4H-pyrazolo[4,3-c]pyridin-3-yl)-3-isoquinolyl]pyrazol-1-yl]ethyl]-2-azaspiro[3.3]heptan-2-yl]-N-[4-(3-chloro-4-cyano-phenoxy)cyclohexyl]pyridazine-3-carboxamide] | > 9.00 | ≥ 10.00
CC(=O)N1CCc2c(c(-c3cccc4cc(-c5ccc(CCC6CCN(c7ccc(C(=O)N[C@H]8CC[C@H](Oc9ccc(C#N)c(Cl)c9)CC8)nn7)CC6)cc5)ncc34)nn2C2CCOCC2)C1 [Compound 153, 6-[4-[2-[4-[8-(5-acetyl-1-tetrahydropyran-4-yl-6,7-dihydro-4H-pyrazolo[4,3-c]pyridin-3-yl)-3-isoquinolyl]phenyl]ethyl]-1-piperidyl]-N-[4-(3-chloro-4-cyano-phenoxy)cyclohexyl]pyridazine-3-carboxamide] | > 9.00 | ≥ 10.00
CC(=O)N1CCc2c(c(-c3cccc4cc(C5CC5)ncc34)nn2C2CCN(CC3CCN(c4ccc(C(=O)N[C@H]5CC[C@H](Oc6ccc(C#N)c(Cl)c6)CC5)nn4)CC3)CC2)C1 [Compound 123, 6-[4-[[4-[5-acetyl-3-(3-cyclopropyl-8-isoquinolyl)-6,7-dihydro-4H-pyrazolo[4,3-c]pyridin-1-yl]-1-piperidyl]methyl]-1-piperidyl]-N-[4-(3-chloro-4-cyano-phenoxy)cyclohexyl]pyridazine-3-carboxamide] | > 9.00 | 9.00 to 10.00

Second part, the molecule after the results:

pEC50 (AR / CBP ternary complex) | pIC50 (VCaP cells) | Structure (SMILES)
> 9.00 | 9.00 to 10.00 | CC(=O)N1CCc2c(c(N3CCCc4cc(-c5cnn(C)c5)c(C(F)F)cc43)nn2C2CCN(C3CC4(CCN(c5ccc(C(=O)N[C@H]6CC[C@H](Oc7ccc(C#N)c(Cl)c7)CC6)nn5)CC4)C3)CC2)C1 [Compound 176, 6-[2-[4-[5-acetyl-3-[7-(difluoromethyl)-6-(1-methylpyrazol-4-yl)-3,4-dihydro-2H-quinolin-1-yl]-6,7-dihydro-4H-pyrazolo[4,3-c]pyridin-1-yl]-1-piperidyl]-7-azaspiro[3.5]nonan-7-yl]-N-[4-(3-chloro-4-cyano-phenoxy)cyclohexyl]pyridazine-3-carboxamide]
> 9.00 | 9.00 to 10.00 | CC(=O)N1CCc2c(c(N3CCCc4cc(-c5cnn(C)c5)ncc43)nn2C2CCN(C(=O)C3CCN(c4ccc(C(=O)N[C@H]5CC[C@H](Oc6ccc(C#N)c(Cl)c6)CC5)nn4)CC3)CC2)C1 [Compound 67, 6-[4-[4-[5-acetyl-3-[6-(1-methylpyrazol-4-yl)-3,4-dihydro-2H-1,7-naphthyridin-1-yl]-6,7-dihydro-4H-pyrazolo[4,3-c]pyridin-1-yl]piperidine-1-carbonyl]-1-piperidyl]-N-[4-(3-chloro-4-cyano-phenoxy)cyclohexyl]pyridazine-3-carboxamide]
8.00 to 9.00 | 7.00 to 9.00 | CC(=O)N1CCc2c(c(N3CCCc4cc(-c5cnn(C)c5)c(C(F)F)cc43)nn2C2CCN([C@@H]3CCCN(c4ccc(C(=O)N[C@H]5CC[C@H](Oc6ccc(C#N)c(Cl)c6)CC5)nn4)C3)CC2)C1 [Compound 259, 6-[(3R)-3-[4-[5-acetyl-3-[7-(difluoromethyl)-6-(1-methylpyrazol-4-yl)-3,4-dihydro-2H-quinolin-1-yl]-6,7-dihydro-4H-pyrazolo[4,3-c]pyridin-1-yl]-1-piperidyl]-1-piperidyl]-N-[4-(3-chloro-4-cyano-phenoxy)cyclohexyl]pyridazine-3-carboxamide]
> 9.00 | ≥ 10.00 | CC(=O)N1CCc2c(c(N3CCCc4cc(-c5cnn(C)c5)c(C(F)F)cc43)nn2C2CCN(C[C@H]3[C@H](C)CN(c4ccc(C(=O)N[C@H]5CC[C@H](Oc6ccc(C#N)c(C)c6C)CC5)nn4)C[C@@H]3C)CC2)C1 [Compound 288]
> 9.00 | ≥ 10.00 | CC(=O)N1CCc2c(c(N3CCCc4cc(-c5cnn(C)c5)c(C(F)F)cc43)nn2C2CCN(CC3CC4CC3CN4c3ccc(C(=O)N[C@H]4CC[C@H](Oc5ccc(C#N)c(Cl)c5)CC4)nn3)CC2)C1 (stereo partly shown) [Compound 169, 6-[5-[[4-[5-acetyl-3-[7-(difluoromethyl)-6-(1-methylpyrazol-4-yl)-3,4-dihydro-2H-quinolin-1-yl]-6,7-dihydro-4H-pyrazolo[4,3-c]pyridin-1-yl]-1-piperidyl]methyl]-2-azabicyclo [2.2.1]heptan-2-yl]-N-[4-(3-chloro-4-cyano-phenoxy)cyclohexyl]pyridazine-3-carboxamide]
> 9.00 | ≥ 10.00 | CC(=O)N1CCc2c(c(N3CCCc4cc(-c5cnn(C)c5)c(C(F)F)cc43)nn2C2CCN(C3CCN(c4ccc(C(=O)N[C@H]5CC[C@H](Oc6ccc(C#N)c(Cl)c6)CC5)nn4)CC3(F)F)CC2)C1 (stereo partly shown) [Compound 198, 6-[4-[4-[5-acetyl-3-[7-(difluoromethyl)-6-(1-methylpyrazol-4-yl)-3,4-dihydro-2H-quinolin-1-yl]-6,7-dihydro-4H-pyrazolo[4,3-c]pyridin-1-yl]-1-piperidyl]-3,3-difluoro-1-piperidyl]-N-[4-(3-chloro-4-cyano-phenoxy)cyclohexyl]pyridazine-3-carboxamide]
> 9.00 | ≥ 10.00 | CC(=O)N1CCc2c(c(N3CCCc4cc(-c5cnn(C)c5)c(C(F)F)cc43)nn2C2CCN(C3CC4(C3)CN(c3ccc(C(=O)N[C@H]5CC[C@H](Oc6ccc(C#N)c(Cl)c6)CC5)nn3)C4)CC2)C1 [Compound 229, 6-[6-[4-[5-acetyl-3-[7-(difluoromethyl)-6-(1-methylpyrazol-4-yl)-3,4-dihydro-2H-quinolin-1-yl]-6,7-dihydro-4H-pyrazolo[4,3-c]pyridin-1-yl]-1-piperidyl]-2-azaspiro[3.3]heptan-2-yl]-N-[4-(3-chloro-4-cyano-phenoxy)cyclohexyl]pyridazine-3-carboxamide]
